Source: patent US12419854B2, “Methods for treating or preventing gout or hyperuricemia” (Arthrosi Therapeutics, Inc., priority 2018, dated 2025)
Like-named read-outs stand apart in the source and are kept apart here.

Columns and labels:
[1] = target: T1, human URAT1 uptake transporter (Homo sapiens, UniProt Q96S37); test: Inhibition of URAT1-mediated uric acid uptake in MDCKII cells stably expressing human URAT1; type: cell-based
T1 construct: expressed in transfected cells
T1 sequence (Q96S37 1-553): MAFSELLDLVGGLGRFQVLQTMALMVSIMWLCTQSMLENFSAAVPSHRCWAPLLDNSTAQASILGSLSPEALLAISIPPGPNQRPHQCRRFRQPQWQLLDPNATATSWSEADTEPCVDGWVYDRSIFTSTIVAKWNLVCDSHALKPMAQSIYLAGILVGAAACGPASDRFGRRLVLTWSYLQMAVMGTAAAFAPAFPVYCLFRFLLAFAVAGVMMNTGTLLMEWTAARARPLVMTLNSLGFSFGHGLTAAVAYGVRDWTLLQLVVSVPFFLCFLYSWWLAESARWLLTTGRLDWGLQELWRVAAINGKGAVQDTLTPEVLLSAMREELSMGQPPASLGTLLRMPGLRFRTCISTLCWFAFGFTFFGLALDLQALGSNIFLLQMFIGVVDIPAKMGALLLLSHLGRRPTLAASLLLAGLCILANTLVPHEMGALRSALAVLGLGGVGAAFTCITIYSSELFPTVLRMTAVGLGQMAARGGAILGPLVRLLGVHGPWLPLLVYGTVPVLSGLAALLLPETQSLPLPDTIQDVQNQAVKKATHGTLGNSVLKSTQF
Description: Uptake experiments were performed using MDCKII cells stably expressing the human URAT1 uptake transporter. Cells were cultured at 37+1° C. in an atmosphere of 95:5 air:CO2 and were plated onto standard 96-well tissue culture plates at the cell number described in Table 1.
Radiolabeled probe substrate transport was determined by measuring an aliquot (35 μL) from each well for liquid scintillation counting.

[2] = In vitro metabolism in human liver microsomes (HPLC-MS profiling); type: in vitro ADME; conditions: for % MS response, Parent: human liver microsomes 0.5 mg/mL, NADPH, 60 minutes, 37° C.
Description: After pre-warming the mixture at 37° C. for 5 minutes, the reaction was initiated by the addition of 1 mM of NADPH and incubated for 60 minutes at 37° C. in a shaking water bath. The reaction was terminated by the addition of 0.5 mL ice-cold acetonitrile. Time 0 incubation was also performed by adding acetonitrile before the addition of microsomes to the incubation mixture as a reference sample for each species. Following vortex and centrifugation at 15,000 g for 3 minutes at room temperature, resulting supernatant was concentrated under nitrogen flow at 33° C., until approximately 0.5 mL of sample remained. The extract was then transferred to a 1.5-mL centrifuge vial for centrifugation at 15,000 g for 3 minutes. Finally, aliquots of the supernatant were transferred to HPLC vials for HPLC-MS analyses.
MS Analysis: Mass spectral analyses were performed on an Agilent single quadruple mass spectrometer equipped with an Agilent 1100 HPLC system. The mass spectrometer was fitted with an electrospray ionization (ESI) source and operated in a negative scan mode between 400 and 500 amu:
Metabolic profiling of benzbromarone was conducted using a similar method as described above.

Sprague-Dawley Rats = test: 4-week oral toxicity study in Sprague-Dawley rats; type: in vivo; conditions: rat
Excerpt: (§1) On Day 29, surviving TS animals (all animals in study) were euthanized and subjected to a full gross necropsy, which included a macroscopic examination of the external surface of the body, all orifices, cranial cavity, external surface of the brain, the thoracic, abdominal and pelvic cavities and their viscera, cervical areas, carcass and genitalia. Organs were weighed as soon as possible from all main study animals at the scheduled necropsies. Tissues from Groups 1 and 5 animals at the terminal sacrifice, from animals found dead or moribund-sacrificed, and gross lesions from all animals, were embedded in paraffin, sectioned, stained with hematoxylin and eosin and examined microscopically by a board certified veterinary pathologist.

Cynomolgus Monkeys = test: 4-week oral toxicity study in cynomolgus monkeys; type: in vivo
Excerpt: as §1, with “from” for “from Groups 1 and 5”

[3] = Phase 1 single dose study, plasma pharmacokinetics; type: in vivo, human; conditions: for power model intercept (a) of exposure versus dose: male, human, plasma, oral
Description: (§2) The dose groups included Cohort 1 (15 mg or placebo, fasted, oral suspension), Cohort 2 (50 mg or placebo, fasted, suspension), Cohort 3 (100 mg or placebo, fasted, oral suspension), Cohort 4 (150 mg or placebo, fasted, oral suspension), Cohort 6 (50 mg or placebo, fed, oral suspension), and Cohort 7 (50 mg or placebo, fasted, oral capsule). […] An additional 8 subjects received placebo.
The results are consistent with observation in animal testing and higher exposure of S-enantiomer was attributed to the conversion of the R-enantiomer in vivo.

serum uric acid (sUA) [4] = test: Phase 1 single dose study, pharmacodynamics (serum uric acid); type: in vivo, human; conditions: for Percent change in serum uric acid, mean, time-matched (Day-1) baseline: 0 h
Description: as §2
Decrease in sUA appeared to reach a plateau at 100 mg or lower.

serum uric acid (sUA) [5] = test: Phase 1 multiple ascending dose study, pharmacodynamics (serum uric acid); type: in vivo, human; conditions: 25, 50 or 75 mg once daily oral capsules, fasted, 10 days; in words
Excerpt: An additional 6 subjects received placebo.
Steady-state sUA lowering effect was achieved after approximately 5 days.

## [2H]c1c([2H])c([2H])c2c(C(=O)c3cc(Br)c(O)c(Br)c3)c(C(C)O)oc2c1[2H] (racemic) [Compound 1, (3,5-dibromo-4-hydroxyphenyl)(2-(1-hydroxyethyl)benzofuran-3-yl-4,5,6,7-d4)methanone]
[1]; MDCK-II, at 10 μM, read-out: inhibition of URAT1 mediated uric acid accumulation
  inhibition at 10 µM: 100%
[1]; comparison in words
  in vitro URAT1 potency versus benzbromarone: better in vitro URAT1 potency than benzbromarone
[2]
  % MS response, Parent: 82.5%
[2]; in words
  formation of 6-OH benzbromarone and 5,6-di-OH benzbromarone metabolites: not formed
Sprague-Dawley Rats; 2-50 mg/kg/day oral gavage, 28 days
  effect on food consumption of body weight: no effect
Sprague-Dawley Rats; female, 50 mg/kg/day, 28 days
  kidney weight: kidney weight increase
Sprague-Dawley Rats; female, ≥15 mg/kg/day, 28 days
  liver weight: Liver weight increase
Sprague-Dawley Rats; in vivo
  human equivalent of NOAEL: 500 mg
Sprague-Dawley Rats; male, 50 mg/kg/day, 28 days
  liver weight: Liver weight increase
Cynomolgus Monkeys; cynomolgus monkey, in vivo
  human equivalent of NOAEL: 600 mg
Cynomolgus Monkeys; monkey, 10-150 mg/kg/day, 28 days
  effect on food consumption of body weight: no effect
Cynomolgus Monkeys; monkey, male, 150 mg/kg/day, no statistical difference
  liver weight: trended higher
[3]; 50 mg, fed versus fasted
  food effect on Cmax in the fed state: ~33%
[3]; 15 to 150 mg, fasted, in words
  dose proportionality of AUC (AUCinf): dose proportional increases
  dose proportionality of Cmax: slightly less than dose proportionality increase
[3]; 15 to 150 mg, fasted, AUCinf (μg · h/mL) = a × dose^b, read-out: power model intercept, AUCinf
  power model intercept (a) of exposure versus dose: 944 ng·h/mL
[3]; 15 to 150 mg, fasted, Cmax (μg/mL) = a × dose^b, read-out: power model intercept, Cmax
  power model intercept (a) of exposure versus dose: 96.6 ng/mL
[3]; single oral dose 50 mg, fed, suspension (C6)
  AUCinf (Total): 51200 ng·h/mL
[3]; single oral dose 15-150 mg
  volume of distribution, range over dose groups: 14 to 18 L
Serum uric acid (sUA) [4]; 50 mg single dose, throughout 120 hours post-dose, in words
  sUA reduction with versus without food: no difference
Serum uric acid (sUA) [4]; single oral dose 15 mg, fasted
  Percent change in serum uric acid, mean, time-matched (Day-1) baseline: −3.4%
Serum uric acid (sUA) [4]; single oral dose 50 mg, fasted (suspension)
  Percent change in serum uric acid, mean, time-matched (Day-1) baseline: −8.9%
Serum uric acid (sUA) [4]; single oral dose 50 mg, fasted (suspension), −12 h (pre-dose)
  Serum uric acid, mean: 5.9 mg/dL
Serum uric acid (sUA) [4]; single oral dose 50 mg, fasted (suspension), −24 h (pre-dose)
  Serum uric acid, mean: 6.7 mg/dL
Serum uric acid (sUA) [4]; single oral dose 50 mg, fasted, Capsule, −12 h (pre-dose)
  Serum uric acid, mean: 5.5 mg/dL
Serum uric acid (sUA) [4]; single oral dose 50 mg, fasted, Capsule, −18 h (pre-dose)
  Serum uric acid, mean: 5.5 mg/dL
Serum uric acid (sUA) [4]; single oral dose 50 mg, fed
  Percent change in serum uric acid, mean, time-matched (Day-1) baseline: −1.0%
Serum uric acid (sUA) [4]; single oral dose 50 mg, fed, −12 h (pre-dose)
  Serum uric acid, mean: 6.2 mg/dL
Serum uric acid (sUA) [4]; single oral dose 50 mg, fed, −24 h (pre-dose)
  Serum uric acid, mean: 6.5 mg/dL
Serum uric acid (sUA) [4]; single oral dose 100 mg, fasted
  Percent change in serum uric acid, mean, time-matched (Day-1) baseline: −6.6%
Serum uric acid (sUA) [4]; single oral dose 150 mg, fasted, −18 h (pre-dose)
  Serum uric acid, mean: 5.7 mg/dL
Serum uric acid (sUA) [4]; single oral dose 15, 50, 100, and 150 mg fasted, at 50 mg or higher, in words
  mean sUA levels versus placebo group: dose-dependent decreases
Serum uric acid (sUA) [5]
  mean sUA levels versus placebo group: dose-dependent decreases

## CCc1oc2ccccc2c1C(=O)c1cc(Br)c(O)c(Br)c1 [Benzbromarone, reference compound]
[2]
  % MS response, Parent: 13.1%
